Assay results reported in patent US20240271127A1, “METHODS OF ENHANCING AND EXPEDITING EXPRESSION OF ANTIBODIES” (Aridis Pharmaceuticals, Inc., priority 2019, published 2024).

Tested on: UPR pathway in CHO-K1 cell line expressing Ire1-1642G and Fv2E-PERK
Experiment: Drug-inducible UPR pathway activation, RT-qPCR of UPR gene mRNA transcripts
Assay type: cell-based, Chinese hamster
Details: CHO-K1 transfected with Ire1-1642G and Fv2E-PERK in combination; 1NM-PP1 0, 10 or 50 μM added 24 hours post-transfection
Experimental: In FIG. 12A drug-inducible activation of UPR pathway promotes ER expansion signaling pathways in a dosage-dependent manner. […] At 24 hours post-transfection, cells were treated with varying concentrations of 1NM-PP1 (0, 10, or 50 μM). mRNA transcripts of UPR genes were measured by RT-qPCR of unspliced Xbp1 (Xbp1u), spliced Xbp1 (Xbp1s), Chop, Gadd34, and Atf4. […]
Reverse transcription real-time quantitative polymerase chain reaction (RT-qPCR). […] Quantification was by standard ddCt method.
1NM-PP1 drug induction in CHO cells: Stable CHO cell lines expressing Ire1a 1642G or Fv2E-PERK alone or in combination were induced with 10 or 50 µM of 1NM-PP1. Gene expression measured by RT-qPCR was performed at 24h post-drug induction.
A drug inducible UPR activation pathway was constructed in a CHO-K1 cell line transfected with plasmid containing constitutive promoter expressing Ire1-1642G or Fv2E-PERK alone or in combination. At 24 hours post-transfection, cells were treated with varying concentrations of 1NM-PP1 (0, 10 or 50 μM). mRNA transcripts of UPR genes were measured by RT-qPCR of unspliced Xbp1 (Xbp1u), spliced Xbp1 (Xbp1s), Chop, Gadd34, and Atf4.

With `CC(C)(C)n1nc(Cc2cccc3ccccc23)c2c(N)ncnc21` [1NM-PP1] the “mRNA transcripts of UPR genes Xbp1u, CHOP, Gadd34 and Atf4 (RT-qPCR)” value was “increased at higher concentrations”.
